Test results published in patent publication US11453703B2, “Heterotandem bicyclic peptide complexes” (BicycleTX Limited, priority 2018, dated 2022).

What was measured:
[1] = molecular target: T1, CD137 (Homo sapiens, UniProt Q07011); experiment: CD137 reporter assay, co-culture with PD-L1 expressing cell line RKO; format: cell-based; design: host or cells: Jurkat reporter cells; settings: tumour target PD-L1, co-culture with RKO, 6 h
Method: (§1) Culture medium referred to as R1 media is prepared by adding 1% FBS to RPMI-1640 (component of Promega kit CS196005). Serial dilutions of test articles in R1 are prepared in a sterile 96 well-plate. Use 25 μl per well of test articles or R1 (as a background control) to designated wells in white cell culture plate. Tumour cells* are harvested and resuspended at a concentration of 400,000 cells/mL in R1 media. Twenty five (25) μL/well tumour cells are used in white cell culture plate. Jurkat cells (Promega kit CS196005, 0.5 mL) are thawed in the water bath and then added to 5 ml pre-warmed R1 medium. Twenty five (25) μL/well Jurkat cells are used in white cell culture plate. Incubate the cells and test articles for 6h at 37° C., 5% CO2. At the end of 6 h, add 75 μl/well Bio-Glo™ (Promega) and incubate for 10 min before reading luminescence in a plate reader (Clariostar, BMG). The fold change relative to cells (Jurkat cells+Cell line used in co-culture) is calculated and plotted in GraphPad Prism as log(agonist) vs response to determine EC50 (nM) and Fold Induction over background (Max)

[2] = molecular target: T1, CD137; experiment: CD137 reporter assay, co-culture with EphA2 tumour cells; format: cell-based; design: host or cells: Jurkat reporter cells
Method: as §1

[3] = tumour target EphA2, co-culture with SC-OV-3, 6 h
[4] = tumour target EphA2, co-culture with PC3, 6 h

T1 sequence (Q07011 24-255): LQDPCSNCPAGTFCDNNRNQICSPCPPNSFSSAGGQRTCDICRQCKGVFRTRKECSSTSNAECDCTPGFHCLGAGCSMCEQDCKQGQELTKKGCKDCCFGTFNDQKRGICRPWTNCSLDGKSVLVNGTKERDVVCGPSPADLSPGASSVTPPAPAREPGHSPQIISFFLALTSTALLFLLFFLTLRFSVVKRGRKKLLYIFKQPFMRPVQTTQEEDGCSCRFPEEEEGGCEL

SMILES: CCCC[C@@H]1NC(=O)[C@H](Cc2ccc(O)cc2)NC(=O)[C@@H]2CCCN2C(=O)[C@H](CC(=O)O)NC(=O)[C@H](C)NC(=O)[C@H](Cc2ccccc2)NC(=O)[C@@H]2CSCCC(=O)N3CN(CN(C3)C(=O)CCSC[C@@H](C(=O)N[C@@H](C)C(N)=O)NC1=O)C(=O)CCSC[C@H](NC(C)=O)C(=O)N[C@@H](CC(C)(C)C)C(=O)N1CCC[C@H]1C(=O)N[C@@H](CCC(=O)O)C(=O)N[C@H](CCCCNC(=O)CCOCCOCCOCCOCCOCCOCCOCCOCCOCCOCCOCCOCCn1cc(CCC(=O)NCCCC[C@@H]3NC(=O)[C@H](CCC(N)=O)NC(=O)[C@@H]4CSCCC(=O)N5CN(CN(C5)C(=O)CCSC[C@@H](C(=O)N5CCC[C@H]5C(=O)N[C@@H](CO)C(=O)N[C@@H](Cc5c[nH]cn5)C(N)=O)NC(=O)[C@H](CC(C)C)NC(=O)[C@H](Cc5c[nH]cn5)NC(=O)[C@H](CC(C)C)NC3=O)C(=O)CCSC[C@H](NC(=O)[C@H](CCCCN)NC(=O)[C@H](CC(=O)O)NC(=O)[C@H](CO)NC(C)=O)C(=O)N[C@@H](CO)C(=O)N[C@@H](C)C(=O)NCC(=O)N[C@@H](Cc3c[nH]c5ccccc35)C(=O)N[C@@H](CC(C)C)C(=O)N[C@@H]([C@@H](C)O)C(=O)N[C@@H](CCSC)C(=O)N4)nn1)C(=O)N1CCC[C@H]1C(=O)N[C@@H](Cc1ccc(O)cc1)C(=O)N2 [BCY11018]
- Fold Induction over Background [1]: 7 fold

SMILES: CCCC[C@@H]1NC(=O)[C@H](Cc2ccc(O)cc2)NC(=O)[C@@H]2CCCN2C(=O)[C@H](CC(=O)O)NC(=O)[C@H](C)NC(=O)[C@H](Cc2ccccc2)NC(=O)[C@@H]2CSCCC(=O)N3CN(CN(C3)C(=O)CCSC[C@@H](C(=O)N[C@@H](C)C(N)=O)NC1=O)C(=O)CCSC[C@H](NC(C)=O)C(=O)N[C@@H](CC(C)(C)C)C(=O)N1CCC[C@H]1C(=O)N[C@@H](CCC(=O)O)C(=O)N[C@H](CCCCNC(=O)Cn1cc(CCC(=O)NCCCC[C@@H]3NC(=O)[C@H](CCC(N)=O)NC(=O)[C@@H]4CSCCC(=O)N5CN(CN(C5)C(=O)CCSC[C@@H](C(=O)N5CCC[C@H]5C(=O)N[C@@H](CO)C(=O)N[C@@H](Cc5c[nH]cn5)C(N)=O)NC(=O)[C@H](CC(C)C)NC(=O)[C@H](Cc5c[nH]cn5)NC(=O)[C@H](CC(C)C)NC3=O)C(=O)CCSC[C@H](NC(=O)[C@H](CCCCN)NC(=O)[C@H](CC(=O)O)NC(=O)[C@H](CO)NC(C)=O)C(=O)N[C@@H](CO)C(=O)N[C@@H](C)C(=O)NCC(=O)N[C@@H](Cc3c[nH]c5ccccc35)C(=O)N[C@@H](CC(C)C)C(=O)N[C@@H]([C@@H](C)O)C(=O)N[C@@H](CCSC)C(=O)N4)nn1)C(=O)N1CCC[C@H]1C(=O)N[C@@H](Cc1ccc(O)cc1)C(=O)N2 [BCY11377]
- Fold Induction over Background [1]: 6 fold

SMILES: CCCC[C@@H]1NC(=O)[C@H](Cc2ccc(O)cc2)NC(=O)[C@@H]2CCCN2C(=O)[C@H](CC(=O)O)NC(=O)[C@H](C)NC(=O)[C@H](Cc2ccccc2)NC(=O)[C@@H]2CSCCC(=O)N3CN(CN(C3)C(=O)CCSC[C@@H](C(=O)N[C@@H](CNC(=O)CCOCCOCCOCCOCCOCCOCCOCCOCCOCCOCCOCCOCCn3cc(CCC(=O)NCCCC[C@H](NC(=O)CN(C)C(=O)CN(C)C(=O)CN(C)C(=O)CN(C)C(=O)CN(C)C(=O)CN(C)C(=O)CN(C)C(=O)CN(C)C(=O)CN(C)C(=O)CN(C)C(=O)[C@@H]4CSCCC(=O)N5CN6CN(C5)C(=O)CCSC[C@H](NC(=O)[C@H](CCSC)NC(=O)[C@H]([C@@H](C)O)NC(=O)[C@H](CC(C)C)NC(=O)[C@H](Cc5c[nH]c7ccccc57)NC(=O)CNC(=O)[C@H](C)NC(=O)[C@H](CO)NC(=O)[C@@H](NC(=O)[C@H](CCCCN)NC(=O)[C@H](CC(=O)O)NC(=O)[C@@H](N)CO)CSCCC6=O)C(=O)N[C@@H](CCC(N)=O)C(=O)N[C@@H](CCCCN)C(=O)N[C@@H](CC(C)C)C(=O)N[C@@H](Cc5c[nH]cn5)C(=O)N[C@@H](CC(C)C)C(=O)N4)C(N)=O)nn3)C(N)=O)NC1=O)C(=O)CCSC[C@H](NC(C)=O)C(=O)N[C@@H](CC(C)(C)C)C(=O)N1CCC[C@H]1C(=O)N[C@@H](CCC(=O)O)C(=O)N[C@H](C)C(=O)N1CCC[C@H]1C(=O)N[C@@H](Cc1ccc(O)cc1)C(=O)N2 [BCY10581]
- EC50 [1]: 18 nM
- Fold Induction over Background [1]: 6 fold

SMILES: CCCC[C@@H]1NC(=O)[C@H](Cc2ccc(O)cc2)NC(=O)[C@@H]2CCCN2C(=O)[C@H](CC(=O)O)NC(=O)[C@H](C)NC(=O)[C@H](Cc2ccccc2)NC(=O)[C@@H]2CSCCC(=O)N3CN(CN(C3)C(=O)CCSC[C@@H](C(=O)N[C@@H](CNC(=O)CCOCCOCCOCCOCCOCCOCCOCCOCCOCCOCCOCCOCCn3cc(CCC(=O)NCCC(=O)N(C)CC(=O)N(C)CC(=O)N(C)CC(=O)N(C)CC(=O)N(C)CC(=O)N(C)CC(=O)N(C)CC(=O)N(C)CC(=O)N(C)CC(=O)N(C)CC(=O)N[C@@H](C)C(=O)N[C@@H](CCCCNC(=N)N)C(=O)N[C@@H](CC(=O)O)C(=O)N[C@H]4CSCCC(=O)N5CN6CN(C5)C(=O)CCSC[C@H](NC(=O)[C@H](CC(C)C)NC(=O)[C@@H]5CCCN5C(=O)[C@H](CC(N)=O)NC(=O)[C@H](C(C)C)NC(=O)[C@H](CC(C)C)NC(=O)[C@@H]5C[C@@H](O)CN5C4=O)C(=O)N[C@@H](CC(C)C)C(=O)N[C@@H](Cc4c[nH]cn4)C(=O)N4CCC[C@H]4C(=O)N[C@H](CC(=O)O)C(=O)N[C@@H](Cc4c[nH]c5ccccc45)C(=O)N[C@@H](CCCCNC(=N)N)C(=O)N[C@H](C(N)=O)CSCCC6=O)nn3)C(N)=O)NC1=O)C(=O)CCSC[C@H](NC(=O)[C@H](C)NC(C)=O)C(=O)N[C@@H]([C@@H](C)CC)C(=O)N[C@@H](CCC(=O)O)C(=O)N[C@@H](CCC(=O)O)C(=O)NCC(=O)N[C@@H](CCC(N)=O)C(=O)N[C@@H](Cc1ccc(O)cc1)C(=O)N2 [BCY7985]
- induction of CD137 cell activity ([2]; Promega CD137 luciferase reporter assay, in the presence of EphA2-expressing HT1080 cells (FIG. 3)): strong induction of CD137 cell activity
- CD137 induction ([2]; in the absence of HT1080 cells (FIG. 3)): no CD137 induction
- Fold Induction over Background [2, 3]: 15 fold

SMILES: CCCC[C@@H]1NC(=O)[C@H](Cc2ccc(O)cc2)NC(=O)[C@@H]2CCCN2C(=O)[C@H](CC(=O)O)NC(=O)[C@H](C)NC(=O)[C@H](Cc2ccccc2)NC(=O)[C@@H]2CSCCC(=O)N3CN(CN(C3)C(=O)CCSC[C@@H](C(=O)N[C@@H](CNC(=O)CCOCCOCCOCCOCCOCCOCCOCCOCCOCCOCCOCCOCCOCCOCCOCCOCCOCCOCCOCCOCCOCCOCCOCCOCCOCCC(=O)NCCC(=O)N(C)CC(=O)N(C)CC(=O)N(C)CC(=O)N(C)CC(=O)N(C)CC(=O)N(C)CC(=O)N(C)CC(=O)N(C)CC(=O)N(C)CC(=O)N(C)CC(=O)N[C@@H](C)C(=O)N[C@@H](CCCCNC(=N)N)C(=O)N[C@@H](CC(=O)O)C(=O)N[C@H]3CSCCC(=O)N4CN5CN(C4)C(=O)CCSC[C@H](NC(=O)[C@H](CC(C)C)NC(=O)[C@@H]4CCCN4C(=O)[C@H](CC(N)=O)NC(=O)[C@H](C(C)C)NC(=O)[C@H](CC(C)C)NC(=O)[C@@H]4C[C@@H](O)CN4C3=O)C(=O)N[C@@H](CC(C)C)C(=O)N[C@@H](Cc3c[nH]cn3)C(=O)N3CCC[C@H]3C(=O)N[C@H](CC(=O)O)C(=O)N[C@@H](Cc3c[nH]c4ccccc34)C(=O)N[C@@H](CCCCNC(=N)N)C(=O)N[C@H](C(N)=O)CSCCC5=O)C(N)=O)NC1=O)C(=O)CCSC[C@H](NC(=O)[C@H](C)NC(C)=O)C(=O)N[C@@H]([C@@H](C)CC)C(=O)N[C@@H](CCC(=O)O)C(=O)N[C@@H](CCC(=O)O)C(=O)NCC(=O)N[C@@H](CCC(N)=O)C(=O)N[C@@H](Cc1ccc(O)cc1)C(=O)N2 [BCY9758]
- EC50 [2, 3]: 1.2 nM
- Fold Induction over Background [2, 3]: 7 fold

SMILES: CCCC[C@@H]1NC(=O)[C@H](Cc2ccc(O)cc2)NC(=O)[C@@H]2CCCN2C(=O)[C@H](CC(=O)O)NC(=O)[C@H](C)NC(=O)[C@H](Cc2ccccc2)NC(=O)[C@@H]2CSCCC(=O)N3CN(CN(C3)C(=O)CCSC[C@@H](C(=O)N[C@@H](CNC(=O)CCc3cn(CCOCCOCCOCCOCCOCCC(=O)N[C@@H](C)C(=O)N[C@@H](CCCCNC(=N)N)C(=O)N[C@@H](CC(=O)O)C(=O)N[C@H]4CSCCC(=O)N5CN6CN(C5)C(=O)CCSC[C@H](NC(=O)[C@H](CC(C)C)NC(=O)[C@@H]5CCCN5C(=O)[C@H](CC(N)=O)NC(=O)[C@H](C(C)C)NC(=O)[C@H](CC(C)C)NC(=O)[C@@H]5C[C@@H](O)CN5C4=O)C(=O)N[C@@H](CC(C)C)C(=O)N[C@@H](Cc4c[nH]cn4)C(=O)N4CCC[C@H]4C(=O)N[C@H](CC(=O)O)C(=O)N[C@@H](Cc4c[nH]c5ccccc45)C(=O)N[C@@H](CCCCNC(=N)N)C(=O)N[C@H](C(N)=O)CSCCC6=O)nn3)C(N)=O)NC1=O)C(=O)CCSC[C@H](NC(C)=O)C(=O)N[C@@H](CC(C)(C)C)C(=O)N1CCC[C@H]1C(=O)N[C@@H](CCC(=O)O)C(=O)N[C@H](C)C(=O)N1CCC[C@H]1C(=O)N[C@@H](Cc1ccc(O)cc1)C(=O)N2 [BCY10576]
- EC50 [2, 4]: 0.51 nM
- Fold Induction over Background [2, 4]: 38 fold
